Legend:
[1] = Thermal activity by microcalorimetry; type: physicochemical; conditions: microcalorimeter at 25° C., scanned from about 30% to about 90% relative humidity
Procedure: To confirm that the salbutamol sulphate had been converted to the desired low energy, crystalline form i.e. had been annealed, the thermal activity and the water content of the treated salbutamol sulphate compared to untreated salbutamol sulphate was measured using standard microcalorimetry techniques and moisture sorption techniques respectively. A Hart Scientific Microcalorimeter (model 4400) was operated at 25° C. with a water adsorption unit and scanned from about 30% to about 90% relative humidity over a 11.5 hour period. Thermal equilibration time was 1 to 2 hours.

[2] = Water content by vacuum balance moisture sorption; type: physicochemical; conditions: for water content: typical/normal value stated in description
Procedure: To confirm that the salbutamol sulphate had been converted to the desired low energy, crystalline form i.e. had been annealed, the thermal activity and the water content of the treated salbutamol sulphate compared to untreated salbutamol sulphate was measured using standard microcalorimetry techniques and moisture sorption techniques respectively.
A VTI Corp vacuum balance moisture sorption apparatus (model MB300G) was operated at 25° C., and scanned from about 20% to about 90% relative humidity, total scan time about 15 hours. Drying was accomplished at 35° C. under vacuum for approximately 1 hour before the equilibrium condition used for the scans of 3 micrograms/6 minutes was achieved. This same equilibrium weight change criterion was used for the sorption measurements.

[3] = listed as Particulate salbutamol sulphate

thermal activity (heat rate) [1] | water content ([2]; listed as annealed salbutamol sulphate) | thermal activity (heat rate) [1, 3] | moisture content (moisture sorption profile, % weight gain against relative humidity) ([2]; 25° C., scanned from about 20% to about 90% relative humidity) | water content [2, 3] [% by weight] | Substance
lack significant thermal activity |  |  |  |  | salbutamol sulphate [Example 2]
lack significant thermal activity |  |  |  |  | salbutamol sulphate [Example 3]

Continued, substance first:

Substance | thermal activity (heat rate) [1] | water content ([2]; listed as annealed salbutamol sulphate) | thermal activity (heat rate) [1, 3] | moisture content (moisture sorption profile, % weight gain against relative humidity) ([2]; 25° C., scanned from about 20% to about 90% relative humidity) | water content [2, 3] [% by weight]
salbutamol sulphate [Example 4] | lacks significant thermal activity |  |  |  | 
salbutamol sulphate [treated salbutamol sulphate] | absent | less than 0.4 % by weight |  |  | 
salbutamol sulphate [untreated salbutamol sulphate, reference compound] | exothermic rise in heat rate up to approximately 55% relative humidity followed by a large endothermic response |  | significantly greater thermal activity | significantly larger moisture content | ≥ 0.5

Source: patent US6656453B2, “Medicaments” (SmithKline Beecham Corporation, priority 1995, dated 2003)
